Data taken from patent US10689384B2, “Imidazo[1,2-a]quinoxalines and derivatives thereof for the treatment of cancer” (Universite de Montpellier, priority 2014, dated 2020).

What was measured:
[1] = system: human cancer cell lines; experiment: In vitro cytotoxicity study, Summarized results 2 (cell line not given); type: cell-based; details: Homo sapiens, Table 4, Summarized results 2; cell line not stated
Protocol: (§1) The goal of this protocol is to study the effects of the compounds on the proliferation of various human cancer cell lines in order to evaluate the EC50 and their activity in cellulo.
(§2) The cells are seeded the day before treatment in 96 well plates. Each compound concentration is tested in triplicate. A 96 well plate can contain 3 compounds.
(§3) Stock solutions of the tested compounds are prepared at 10 mM in 100% DMSO and stored at […].
(§4) The analysis is carried out by using the GraphPad PRISM 5.0 software.
(§5) Day 1: the cells are seeded one day before treatment with the compounds in 96 well plates. Cell suspensions for each cancer cell line are prepared with a specific density in a specific culture medium (see preceding table). Next, 100 µL of cell suspension is distributed per well (1×96 well plate per cell line).
(§6) Day 2: 24 hours later, the […] compounds or controls (DMSO) are added to the cells ([…] of a compound solution in its specific medium with a final DMSO concentration of 0.15%).
(§7) Each compound concentration is tested in triplicate (6 concentrations between 10^−9 M and 10^−5 M per compound). The cells are incubated at 37° C. for 72 hours with no new treatment.
(§8) Day 5: 15 minutes before incubation of the cells with MTT (3-[4,5-dimethylthiazol-2-yl]-2,5-diphenyltetrazolium bromide), 10% SDS is added to the control wells to obtain a final concentration of 1%. The positive control of inhibition of proliferation is 1% SDS.
(§9) Once the medium is removed, 100 µL of a solution of MTT in fresh medium is added to each well (10 μL of 10×MTT solution at 5 mg/mL in PBS +[…] of fresh medium) and the plates are incubated for 4 hours at 37° C.
(§10) The MTT reaction is quenched and the medium is homogenized by addition of […] of 10% SDS/0.01 M HCl solution placed in each well. The medium is incubated for 2 hours at 37° C. before measuring its absorbance. Absorbance is measured at 570 nm.

[2] = system: A2058; experiment: In vitro cytotoxicity study, inhibition of cell growth (MTT); type: cell-based; details: Homo sapiens, A2058, melanoma, 72 hours
Protocol: as §1, §2
(§11) Cell suspensions for each cancer cell line are prepared in culture medium with a specific density of the specific cell (see the following table). Then, 100 µL of cell suspension is spread per well (plate per one cell line).
as §3, §4, §5, §6, §7, §8, §9, §10

[3] = system: A375; experiment: as above; type: cell-based; details: Homo sapiens, A-375, A375, melanoma, 72 hours
Protocol: as §1, §2, §11, §3, §4, §5, §6, §7, §8, §9, §10

[4] = system: AsPC-1; experiment: as above; type: cell-based; details: Homo sapiens, ASPC1, AsPC-1, pancreas, 72 hours
Protocol: as §1, §2, §11, §3, §4, §5, §6, §7, §8, §9, §10

[5] = system: BxPC3; experiment: as above; type: cell-based; details: Homo sapiens, BXPC-3, BxPC3, pancreas, 72 hours
Protocol: as §1, §2, §11, §3, §4, §5, §6, §7, §8, §9, §10

[6] = system: CFPAC-1; experiment: as above; type: cell-based; details: Homo sapiens, CFPAC-1, pancreas, 72 hours
Protocol: as §1, §2, §11, §3, §4, §5, §6, §7, §8, §9, §10

[7] = system: COLO-205; experiment: as above; type: cell-based; details: Homo sapiens, COLO-205, colon, 72 hours
Protocol: as §1, §2, §11, §3, §4, §5, §6, §7, §8, §9, §10

[8] = system: Calu-1; experiment: as above; type: cell-based; details: Homo sapiens, Calu-1, lung, 72 hours
Protocol: as §1, §2, §11, §3, §4, §5, §6, §7, §8, §9, §10

[9] = system: Capan-1; experiment: as above; type: cell-based; details: Homo sapiens, Capan-1, pancreas, 72 hours
Protocol: as §1, §2, §11, §3, §4, §5, §6, §7, §8, §9, §10

[10] = system: HepG2; experiment: as above; type: cell-based; details: Homo sapiens, HepG2, liver, 72 hours
Protocol: as §1, §2, §11, §3, §4, §5, §6, §7, §8, §9, §10

[11] = system: IPC298; experiment: as above; type: cell-based; details: Homo sapiens, IPC-298, IPC298, melanoma, 72 hours
Protocol: as §1, §2, §11, §3, §4, §5, §6, §7, §8, §9, §10

[12] = system: LoVo; experiment: as above; type: cell-based; details: Homo sapiens, colon, 72 hours
Protocol: as §1, §2, §11, §3, §4, §5, §6, §7, §8, §9, §10

[13] = system: MEWO; experiment: as above; type: cell-based; details: Homo sapiens, melanoma, 72 hours
Protocol: as §1, §2, §11, §3, §4, §5, §6, §7, §8, §9, §10

[14] = system: PC-3; experiment: as above; type: cell-based; details: Homo sapiens, PC-3, prostate, 72 hours
Protocol: as §1, §2, §11, §3, §4, §5, §6, §7, §8, §9, §10

[15] = system: PF382; experiment: as above; type: cell-based; details: Homo sapiens, PF-382, PF382, lymphoid, 72 hours
Protocol: as §1, §2, §11, §3, §4, §5, §6, §7, §8, §9, §10

[16] = system: T-47D; experiment: as above; type: cell-based; details: Homo sapiens, T47D, breast, 72 hours
Protocol: as §1, §2, §11, §3, §4, §5, §6, §7, §8, §9, §10

[17] = biological target: T1, purified tubulin (Sus scrofa, UniProt P02550+P02554); experiment: Effect on the polymerization of purified tubulin (turbidimetry at 350 nm); type: biochemical, pig; details: 2.4 μM tubulin, 37° C.
T1 construct: Tubulin is prepared from pig brain; from tissue; host or cells: pig brain
T1 sequence (P02550 whole entry): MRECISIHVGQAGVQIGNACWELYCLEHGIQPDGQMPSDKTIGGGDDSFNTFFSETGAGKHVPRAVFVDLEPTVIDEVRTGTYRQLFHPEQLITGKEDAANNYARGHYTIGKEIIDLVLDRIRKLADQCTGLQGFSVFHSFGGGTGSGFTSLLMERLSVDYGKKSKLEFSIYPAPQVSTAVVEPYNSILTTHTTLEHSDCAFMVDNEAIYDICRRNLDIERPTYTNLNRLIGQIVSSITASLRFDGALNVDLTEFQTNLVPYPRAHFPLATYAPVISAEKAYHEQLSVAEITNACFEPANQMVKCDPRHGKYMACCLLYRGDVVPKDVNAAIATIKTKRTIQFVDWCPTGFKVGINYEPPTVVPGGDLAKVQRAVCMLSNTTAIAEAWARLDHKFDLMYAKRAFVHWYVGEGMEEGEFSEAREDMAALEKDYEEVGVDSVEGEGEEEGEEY
T1 sequence (P02554 whole entry): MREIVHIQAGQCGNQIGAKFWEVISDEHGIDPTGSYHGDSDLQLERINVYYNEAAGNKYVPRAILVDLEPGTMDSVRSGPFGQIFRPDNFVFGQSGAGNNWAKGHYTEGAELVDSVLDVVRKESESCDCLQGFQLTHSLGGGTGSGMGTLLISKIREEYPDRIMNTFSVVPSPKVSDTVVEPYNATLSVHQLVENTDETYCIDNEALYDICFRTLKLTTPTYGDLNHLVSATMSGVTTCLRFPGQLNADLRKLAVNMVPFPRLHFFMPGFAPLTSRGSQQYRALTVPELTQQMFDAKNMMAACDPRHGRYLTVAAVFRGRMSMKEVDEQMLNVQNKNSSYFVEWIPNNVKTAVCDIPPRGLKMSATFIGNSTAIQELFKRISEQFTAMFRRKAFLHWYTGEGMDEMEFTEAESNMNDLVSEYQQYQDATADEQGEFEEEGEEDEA
Protocol: FIG. 1. Study of the innovative effect of compounds of the selection patent on the polymerization of purified tubulin. This is a comparative study of the effect on the polymerization of purified tubulin by compounds of the selection patent compared to that of the compounds of the patent FR 2,921,927. Polymerized tubulin absorbs at 350 nm.
Tubulin is prepared from pig brain according to the purification process described by Williams and Lee (1982). Tubulin polymerization is monitored by turbidimetry at 350 nm with an MC2 spectrophotometer (Safas, Monaco) equipped with a heat-jacketed cuvette holder. The reaction mixture was prepared at 0° C., and contains PEM buffer, 25% glycerol (v/v), 1 mM GTP, and 2.4 μM tubulin. The GTP and the tubulin are added at the last minute. […] The same volume of DMSO alone was used as a negative control. The final volume of the sample is […]. The reaction is initiated by placing the cuvette in the cell compartment of the spectrophotometer thermostated at 37° C. Ice is added 45 minutes later to launch depolymerization in order to confirm the specificity of the signal.

## CNc1nc2cc(C#N)ccc2n2c(-c3ccc(O)c(O)c3)cnc12 [EAPB 02303-7c]
[1]
  IC50: 6390 nM

## CNc1nc2cc(OC(F)(F)F)ccc2n2c(-c3ccc(OC)c(OC)c3)cnc12 [EAPB 02203-7b, 1-(3,4-Dimethoxyphenyl)-N-methyl-7-(trifluoromethoxy)imidazo[1,2-a]quinoxalin-4-amine]
[1]
  IC50: 3490 nM

## COc1ccc(-c2cnc3c(NCCCCCCNC(=O)OC(C)(C)C)nc4ccccc4n23)cc1OC [EAPB 02212, tert-Butyl (6-((1-(3,4-dimethoxyphenyl)imidazo[1,2-a]quinoxalin-4-yl)amino)hexyl)carbamate]
[1]
  IC50: > 10000 nM

## CNc1nc2ccc(C(F)(F)F)cc2n2c(-c3ccc(OC)c(OC)c3)cnc12 [EAPB 02203-8a, 1-(3,4-Dimethoxyphenyl)-N-methyl-8-(trifluoromethyl)imidazo[1,2-a]quinoxalin-4-amine]
[1]
  IC50: > 10000 nM

## NCCNc1nc2ccccc2n2c(-c3ccc(O)c(O)c3)cnc12 [EAPB 02306, 4-(4-((2-Aminoethyl)amino)imidazo[1,2-a]quinoxalin-1-yl)benzene-1,2-diol]
[1]
  IC50: 1280 nM

## NCCCCCCNc1nc2ccccc2n2c(-c3ccc(O)c(O)c3)cnc12 [EAPB 02307, 4-(4-((6-Aminohexyl)amino)imidazo[1,2-a]quinoxalin-1-yl)benzene-1,2-diol]
[1]
  IC50: 5690 nM

## CNc1nc2ccccc2n2ccnc12 [PED 26, N-Methylimidazo[1,2-a]quinoxalin-4-amine]
[1]
  IC50: > 10000 nM

## CNc1nc2ccccc2n2c(-c3ccc(OC)c(OC)c3)cnc12 [EAPB 02203, 1-(3,4-Dimethoxyphenyl)-N-methylimidazo[1,2-a]quinoxalin-4-amine]
[1]
  IC50: 193 nM

## COc1ccc(-c2cnc3c(NCCCNC(=O)OC(C)(C)C)nc4ccccc4n23)cc1OC [EAPB 02214, tert-Butyl (3-((1-(3,4-dimethoxyphenyl)imidazo[1,2-a]quinoxalin-4-yl)amino)propyl)carbamate]
[1]
  IC50: > 10000 nM

## CNc1nc2ccccc2n2c(-c3cccc(OC)c3)cnc12 [EAPB0503, 1-(3-methoxyphenyl)-N-methylimidazo[1,2-a]quinoxalin-4-amine, reference compound]
[2]
  EC50: 185 nM
[3]
  EC50: 383 nM
[4]
  EC50: 2800 nM
[5]
  EC50: 159 nM
[6]
  EC50: 598 nM
[7]
  EC50: 201 nM
[8]
  EC50: 196 nM
[9]
  EC50: 561 nM
[10]
  EC50: 1360 nM
[11]
  EC50: 469 nM
[12]
  EC50: 89 nM
[13]
  EC50: 125 nM
[14]
  EC50: 537 nM
[15]
  EC50: 205 nM
[16]
  EC50: 198 nM
[17]
  Effect on polymerization of purified tubulin (absorbance level at 350 nm): decreases the absorbance level

## CNc1nc2ccc(OC(F)(F)F)cc2n2c(-c3ccc(O)c(O)c3)cnc12 [EAPB 02303-8b]
[1]
  IC50: > 10000 nM

## CNc1nc2ccccc2n2c(-c3ccc(O)c(O)c3)cnc12 [EAPB 02303, 1-(3,4-Dihydroxyphenyl)-N-methylimidazo[1,2-a]quinoxalin-4-amine]
[2]
  EC50: 4 nM
[3]
  EC50: 10 nM
[4]
  EC50: 957 nM
[5]
  EC50: 11 nM
[6]
  EC50: 12 nM
[7]
  EC50: 38 nM
[8]
  EC50: 4 nM
[9]
  EC50: 154 nM
[10]
  EC50: 247 nM
[11]
  EC50: 40 nM
[12]
  EC50: 45 nM
[13]
  EC50: 3 nM
[14]
  EC50: 12 nM
[15]
  EC50: 7 nM
[16]
  EC50: 13 nM
[1]
  IC50: < 3 nM
[17]
  Effect on polymerization of purified tubulin (absorbance level at 350 nm): leaves it unchanged

## COc1ccc(-c2cnc3c(N4CCN(C(=O)OC(C)(C)C)CC4)nc4ccccc4n23)cc1OC [EAPB 02213, tert-Butyl 4-(1-(3,4-dimethoxyphenyl)imidazo[1,2-a]quinoxalin-4-yl)piperazine-1-carboxylate]
[1]
  IC50: > 10000 nM
